Laboratory results published in patent US20190029987A1, “DIMETHYL FUMARATE (DMF) FOR PREVENTION OR TREATMENT OF GOUT, ACNE, DIABETES, VITILIGO AND/OR PYODERMA GANGRENOSUM” (UNIVERSITAT ZURICH, priority 2016, published 2019).

Assays:
ASC = details: THP1, 10 μM, nigericin 5 μM for 2.5 h, FIG. 5F
Procedure: In order to analyse, at which level SFN blocks inflammasome activation, the inventors determined the formation of ASC specks in SFN-treated and inflammasome activated THP1 cells (FIG. 5F). Formation of ASC specks is an upstream event of inflammasome activation.
ASC specks were analysed as described (Nara et al., Nat Immunol 2013. 14: 1247-1255),
(F) THP1 cells (3 d differentiated with TPA, overnight primed with LPS) were stimulated with SFN (10 μM) or the solvent DMSO and mock-treated or with nigericin (5 μM) for 2.5 h. Lysates were harvested in Triton buffer and analysed for soluble and insoluble (indicating speck formation) ASC or in DSS-containing buffer for detection of ASC monomers, dimers and oligomers by Western blotting. IL-1β secretion was determined by ELISA.

NLRP3 inflammasome [1] = test: UVB irradiation-induced inflammasome activation in HPKs (IL-1β ELISA, Western blot); format: cell-based, human; details: for relative efficiency/potency of inflammasome inhibition between compounds: UVB, same concentrations; for relative efficiency/potency of inflammasome inhibition between compounds / inflammasome activation (processed caspase-1, mature IL-1β and -18 in the supernatant): FIG. 2A, 8A-C; for inflammasome activation (processed caspase-1, mature IL-1β and -18 in the supernatant): different doses, UVB 30 min later, harvested after 5 h
From the text: To determine the effects of Nrf2 activating compounds on inflammasome activation, the inventors treated keratinocytes with different doses of SFN, tBHQ, DMF or 15d-PGJ2 and irradiated the cells with UVB.
SFN, DMF, 15d-PGJ2, tBHQ, zymosan, ATP, poly(dA:dT), cycloheximide, puromycin, and doxycycline were purchased from Sigma (Munich, Germany), nigericin from Enzo Life Sciences (New York, US-NY), MG132 from Calbiochem (Darmstadt, Germany), and blasticidin from Invivogen (Toulouse, France). Release of IL-1p was determined by ELISA according the instructions of the manufacturer (R&D Systems, Minneapolis, US-MN). MSU crystals were prepared by crystallisation of a supersaturated solution of uric acid under mildly basic conditions. Briefly, uric acid was added to a solution of NaOH, the solution was boiled until the uric acid was dissolved and passed through a filter. NaCl was added and crystallisation was performed at 4° C. Crystals were filtered, then dried using a speedvac, weighted and autoclaved.
(A) HPKs were treated with the indicated concentrations of the Nrf2 activating compound tBHQ irradiated with UVB 30 min later and harvested after 5 h. ELISA measurements were performed for quantification of IL-1β secretion and Western blots for analysis of expression and activation of the indicated proteins. Specific bands are marked with an asterisk. (B) THP-1 cells were differentiated with PMA (27 nM) for 3 d, primed with upLPS (100 ng/ml) overnight, and 1 h before inflammasome activation (5 μM nigericin, 150 μg/ml MSU) treated with SFN (10 μM), 15-PGJ2 (10 μM) or DMF (50 μM) (15-PG: 15-PGJ2). Cells and supernatants were harvested after 5 h and analysed for inflammasome activation by ELISA measurement of IL-1p and Western blots as indicated. (C) Freshly isolated PBMCs from human blood were primed overnight with upLPS (100 ng/ml) and treated with SFN (10 μM), tBHQ (10 μM), DMF (50 μM) or 15-PGJ2 (10 μM) 1 h before inflammasome activation by nigericin (5 μM). ELISA measurement for secretion of IL-1β as readout for inflammasome activation was performed after 5 h. (D) HPKs or (E) differentiated and primed THP-1 cells were pretreated with cycloheximide (CHX, 30 μg/ml) to block protein synthesis for 1 h before SFN (10 μM) was added to the cells and after an additional hour the inflammasome was activated by (D) irradiation with UVB or (E) treatment with nigericin (5 μM). Cells and supernatants were harvested after (D) 6 h or (E) 3.5 h and analysed for inflammasome activation by Western blot as indicated. (A-E) Representative experiments performed at least three times are shown. Statistics: (A-C) Error bars represent the mean±SD of a representative experiment performed in triplicates. One-way ANOVA was performed. **P≤0.01; ***P≤0.001.
(§1) FIG. 8: (A-C) HPKs were treated with the Nrf2 activating compounds (A) SFN, (B) DMF, and (C) 15d-PGJ2, irradiated with UVB 30 min later and harvested after 5 h. Analogous experiment as described in FIG. 2A for tBHQ. (D) THP-1 cells were differentiated with TPA for 3 d and primed with LPS overnight. Then, cells were treated with the solvent DMSO, SFN (10 μM) or 15-PGJ2 (10 μM). After 30 min the inflammasome was activated by nigericin treatment and cells and supernatants were harvested after 2.5 h. Western blots showing prolL-1β and mature IL-1p in the lysate and supernatant. 20% lysate and supernatant of a 12 well was used, respectively, in order to allow a comparison. IL-1β was quantified in the supernatant by ELISA and cytotoxicity by LDH release.

[2] = molecular target: caspase-1 / Rbx1 interaction (Homo sapiens, UniProt P29466); details: HPKs, 50 μM, harvested 1 h later, FIG. 5C
Chain of caspase-1 / Rbx1 interaction (P29466 120-404): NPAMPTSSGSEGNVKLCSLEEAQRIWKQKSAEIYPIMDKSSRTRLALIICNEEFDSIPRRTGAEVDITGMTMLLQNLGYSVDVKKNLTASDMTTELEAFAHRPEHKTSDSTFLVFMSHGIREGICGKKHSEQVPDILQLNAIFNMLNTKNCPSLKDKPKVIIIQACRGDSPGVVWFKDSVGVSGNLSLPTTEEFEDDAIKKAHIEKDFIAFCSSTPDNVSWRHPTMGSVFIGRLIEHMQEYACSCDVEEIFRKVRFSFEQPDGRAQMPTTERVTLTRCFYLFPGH
Procedure: To address this point, the inventors performed co-immunoprecipitation (co-IP) experiments with an antibody for caspase-1 and lysates of HPKs. […] In addition, the inventors overexpressed a FLAG-tagged version of caspase-1 in HPKs and precipitated the protease with an ANTI-FLAG M2 Affinity Gel (FIG. 5B).
Co-immunoprecipitation (co-IP) was performed with lysates of HPKs as described (Sollberger et al., J Immunol 2012. 188: 1992-2000). Briefly, HPKs were grown in 10 cm dishes, transfected with siRNA (scr or siRNA targeting Rbx1), and propagated to 80% confluency (3 days), Four dishes were harvested in 150 μl co-IP buffer with complete proteinase inhibitor (Roche, Rotkreuz, Switzerland), respectively. After treatment in a douncer, the lysates were centrifuged (20 min, 17 000×g). The supernatant was diluted 1: 1 with co-IP buffer and incubated with 20 μg antibody (caspase-1 or HA). After centrifugation, 150 μl (50 mg/ml) protein A Sepharose (GE Healthcare, Little Chalfront, UK) was added. After 90 min, the beads were washed four times with co-IP buffer and resuspended in 100 μl 2×loading SDS buffer. Alternatively, co-immunoprecipitation was performed using an ANTI-FLAG® M2 Affinity Gel (Sigma). HPKs were grown in 10 cm dishes and transduced with lentiviral constructs encoding FLAG-tagged caspase-1 or GFP as described above. […]

[3] = test system: Nrf2 target genes Gstp1, Nqo1 and Srxn1; test: Nrf2 target gene expression in liver of treated mice (qRT-PCR); format: in vivo, mouse; details: oral gavage 25 mg/kg, FIG. 3C
Procedure: (§2) Monosodium urate (MSU) crystal-induced peritonitis is a mouse model of inflammation and gout, which is dependent on IL-1, IL-1R1, MyD88 and the NLRP3 inflammasome. […] The inventors chose a different way of administration and supplied mice with SFN or DMF by oral gavage to determine a potential anti-inflammatory activity of the Nrf2 activators in vivo (FIG. 3). […] The inventors analysed the cellular infiltrate in the peritoneum 6 h post injection of MSU crystals.
qRT-PCR was performed with the LightCycler 480 SYBR Green Master or the FastStart Universal SYBR Green Master (both Roche, Rotkreuz, Switzerland) using total cellular RNA. Specific primer pairs (Supplementary Table 2) were designed to generate an approximately 150 bp fragment flanking an intron-exon border of the corresponding gene. […]
Mice treated by gavage with (A, B, C) SFN (25 mg/kg) in PBS or (D, E, F) DMF (20 mg/kg) in H2O containing 0.08% methocel and 10% DMSO, vehicle-treated mice served as control. […] Peritonitis was induced by peritoneal injection of 2 mg MSU crystals, (B, E) After 6 h the number of neutrophils of the peritoneal lavage was determined by flow cytornetry. (C, F) At the same time, the liver was isolated and analysed for the expression of the Nrf2 target genes Gstp1, Nqo1 and Srxn1 by qRT-PCR. […]

NLRP3 inflammasome [4] = molecular target: NLRP3 inflammasome (Mus musculus, UniProt Q8R4B8); details: BMDCs from wt and Nrf2 knockout mice, 10 μM 1 h before 5 μM nigericin, 4.5 h, FIG. 5D,E
Chain of NLRP3 inflammasome (Mus musculus, UniProt Q8R4B8) (Q8R4B8 whole entry): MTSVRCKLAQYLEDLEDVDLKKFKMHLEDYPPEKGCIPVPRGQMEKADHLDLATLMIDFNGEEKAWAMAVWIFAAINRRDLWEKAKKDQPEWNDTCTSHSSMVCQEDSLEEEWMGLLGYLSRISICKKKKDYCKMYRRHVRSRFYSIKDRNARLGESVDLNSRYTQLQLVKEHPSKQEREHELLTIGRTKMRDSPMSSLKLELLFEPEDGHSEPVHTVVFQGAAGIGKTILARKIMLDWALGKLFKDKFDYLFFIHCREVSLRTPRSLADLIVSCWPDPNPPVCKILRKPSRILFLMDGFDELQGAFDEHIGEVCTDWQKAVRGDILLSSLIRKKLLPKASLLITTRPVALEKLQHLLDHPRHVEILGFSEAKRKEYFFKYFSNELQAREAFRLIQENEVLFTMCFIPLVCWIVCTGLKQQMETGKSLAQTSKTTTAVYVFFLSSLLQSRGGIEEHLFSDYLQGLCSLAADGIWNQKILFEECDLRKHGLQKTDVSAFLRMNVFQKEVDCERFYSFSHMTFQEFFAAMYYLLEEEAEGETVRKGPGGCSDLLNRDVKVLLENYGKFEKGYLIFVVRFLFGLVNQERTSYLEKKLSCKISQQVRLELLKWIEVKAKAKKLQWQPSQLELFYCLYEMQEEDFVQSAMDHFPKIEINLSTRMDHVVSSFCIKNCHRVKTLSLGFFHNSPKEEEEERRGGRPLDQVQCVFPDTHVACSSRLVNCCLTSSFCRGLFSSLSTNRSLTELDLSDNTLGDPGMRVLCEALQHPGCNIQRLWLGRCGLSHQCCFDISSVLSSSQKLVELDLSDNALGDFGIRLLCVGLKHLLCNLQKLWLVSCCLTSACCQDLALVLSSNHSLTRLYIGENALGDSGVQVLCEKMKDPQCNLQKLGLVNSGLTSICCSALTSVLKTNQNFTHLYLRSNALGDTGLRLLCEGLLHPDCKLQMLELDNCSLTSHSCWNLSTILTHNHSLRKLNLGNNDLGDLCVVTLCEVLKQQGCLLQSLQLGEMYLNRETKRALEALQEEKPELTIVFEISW
Procedure: To address this possibility, the inventors treated BMDCs from wild-type and Nrf2 knockout mice with SFN or vehicle (FIG. 5 D, E).
(D, E) DCs were differentiated from the bone marrow of wt and Nrf2 knockout mice (n=4), primed overnight with upLPS and treated with the solvent DMSO (ctrl) or SFN (10 μM). After 1 h, BMDCs were treated with 5 μM nigericin and harvested 4.5 h later. (D) Western blots for expression and activation of the indicated proteins and (E) ELISA for quantification of secretion of IL-1p. […] IL-1β secretion was determined by ELISA. […] (A-E) Representative experiments performed at least three times are shown. (E) Error bars represent the mean±SD of a representative experiment performed in triplicates.

[5] = test system: Monosodium urate (MSU) crystal-induced peritonitis; test: MSU crystal-induced peritonitis mouse model (neutrophils in peritoneal lavage); format: in vivo; details: mice, oral gavage 25 mg/kg in PBS for two days, 6 h post 2 mg MSU crystals, vs control mice, FIG. 3B
Procedure: as §2
Mice were challenged with 2 mg of MSU crystals for 6 hours as previously described (Chen et a Olin Invest 2006. 116: 2262-2271).
Mice treated by gavage with (A, B, C) SFN (25 mg/kg) in PBS or (D, E, F) DMF (20 mg/kg) in H2O containing 0.08% methocel and 10% DMSO, vehicle-treated mice served as control. Regime for (A) SFN or (D) DMF treatment. Peritonitis was induced by peritoneal injection of 2 mg MSU crystals, (B, E) After 6 h the number of neutrophils of the peritoneal lavage was determined by flow cytornetry. […] Statistics: Student's t-test. (B, C) n≥3, (E, F) n=7. *P≤0.05; **P≤0.01

THP-1 cells = test: Pyroptosis in inflammasome activated THP-1 cells (LDH release); format: cell-based, human; details: THP-1, 10 μM 30 min before nigericin, 2.5 h, FIG. 8D
Procedure: To determine the effects of Nrf2 activating compounds on inflammasome activation, the inventors treated keratinocytes with different doses of SFN, tBHQ, DMF or 15d-PGJ2 and irradiated the cells with UVB. […] As the Nrf2 activators were added to the cells only 15 to 30 min prior to inflammasome activation, it is unlikely that Nrf2 target genes are involved in inflammasome inhibition.
Supernatants were harvested and after centrifugation (400×g) used for analysis. Cells were lysed in culture medium with 2% Triton X-100 for 10 min, LDH activity was determined according to the manufacturer (Cytotox 96 nonradioactive cytotoxicity assay, Promega, Madison, US-WC).
as §1, with “20% lysate and supernatant of a 12 well was used, respectively, in order to allow a comparison.” left out

| Structure (SMILES) | ASC speck formation / oligomerization (ASC) | inflammasome inhibition by SFN with protein synthesis blocked by cycloheximide (NLRP3 inflammasome [1]; CHX 30 μg/ml 1 h before SFN 10 μM, UVB 1 h later, 6 h, FIG. 2D) | relative efficiency/potency of inflammasome inhibition between compounds (NLRP3 inflammasome [1]) | inflammasome activation (processed caspase-1, mature IL-1β and -18 in the supernatant) (NLRP3 inflammasome [1]) | interaction between caspase-1 and Rbx1 (co-IP) [2] | expression of Nrf2 target genes in the liver [3] | secretion of IL-1β (NLRP3 inflammasome [4]) | number of neutrophils in the peritoneum [5] | pyroptosis (release of lactate dehydrogenase) (THP-1 cells) |
| --- | --- | --- | --- | --- | --- | --- | --- | --- | --- |
| C[S+]([O-])CCCCN=C=S (stereo not drawn) [SFN, sulforaphane] | prevented oligomerization of the adaptor protein | did not prevent inflammasome inhibition | much more efficient than tBHQ and DMF | inhibited inflammasome activation in a dose-dependent manner | did not prevent the interaction between caspase-1 and Rbx1 | increased mRNA expression | completely abolished secretion of the cytokine independently of Nrf2 expression | significantly reduced | strongly inhibited pyroptosis |
| CCCCCC=CC=C1C(=O)C=CC1CC=CCCCC(=O)O [15d-PGJ2, 15-deoxy-D-prostaglandin J2] |  |  | much more efficient than tBHQ and DMF | inhibited inflammasome activation in a dose-dependent manner |  |  |  |  | strongly inhibited pyroptosis |
